Assay results as given in patent US20240246964A1 (Arbutus Biopharma Corporation, priority 2021, published 2024).

Key:
[1] = target: PD-L1 His protein / PD-1 Fc protein (Homo sapiens (Human), UniProt Q9NZQ7); assay: HTRF Assay (PD-1/PD-L1 interaction); format: binding; settings: PD-L1 His 6 nM, PD-1 Fc 6 nM
[2] = target: human PD-L1 (Homo sapiens (Human), UniProt Q9NZQ7); assay: T cell activation luciferase reporter cell culture system (T Cell Activation Assay); format: cell-based; settings: luciferase reporter assay; PD-L1 aAPC/CHO-K1 cells with PD-1 effector Jurkat T cells
Chain of human PD-L1 (Q9NZQ7 19-290): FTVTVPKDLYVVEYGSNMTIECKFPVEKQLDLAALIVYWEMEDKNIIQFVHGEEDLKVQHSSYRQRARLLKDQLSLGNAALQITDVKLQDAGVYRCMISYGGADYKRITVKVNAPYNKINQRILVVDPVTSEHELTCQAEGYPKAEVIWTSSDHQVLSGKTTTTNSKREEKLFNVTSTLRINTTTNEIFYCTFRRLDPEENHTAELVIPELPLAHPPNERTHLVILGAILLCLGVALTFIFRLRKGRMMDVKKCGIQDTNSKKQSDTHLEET

Chain of PD-L1 His protein / PD-1 Fc protein (Q9NZQ7 19-238): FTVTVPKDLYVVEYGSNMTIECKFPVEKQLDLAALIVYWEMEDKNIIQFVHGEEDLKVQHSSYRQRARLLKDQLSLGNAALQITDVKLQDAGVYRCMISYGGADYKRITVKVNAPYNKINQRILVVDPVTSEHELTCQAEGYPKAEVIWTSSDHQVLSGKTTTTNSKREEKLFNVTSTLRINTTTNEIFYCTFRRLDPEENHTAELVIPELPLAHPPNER

Structure (SMILES) | IC50 [1] | EC50 [2]
COc1cc(-c2nccc(-c3cccc(-c4ccc(CN5CC6(CNC(=O)C6)C5)c(OC)n4)c3Cl)c2Cl)cc2c1CN(CC(O)CF)CC2 (stereo not shown) [Example 296, 2-((6-(2-Chloro-3-(3-chloro-2-(2-(3-fluoro-2-hydroxypropyl)-8-methoxy-1,2,3,4-tetrahydroisoquinolin-6-yl)pyridin-4-yl)phenyl)-2-methoxypyridin-3-yl)methyl)-2,6-diazaspiro[3.4]octan-7-one] | 3.3 nM | 49.8 nM
COc1cc(-c2nccc(-c3cccc(-c4ccc(CN5CC6(CNC(=O)C6)C5)c(OC)n4)c3Cl)c2Cl)cc2c1CN(CC1(C(=O)O)CC1)CC2 [Example 297, 1-((6-(3-Chloro-4-(2-chloro-3-(6-methoxy-5-((7-oxo-2,6-diazaspiro[3.4]octan-2-yl)methyl)pyridin-2-yl)phenyl)pyridin-2-yl)-8-methoxy-3,4-dihydroisoquinolin-2(1H)-yl)methyl)cyclopropane-1-carboxylic acid] | 0.29 nM | 422 nM
COc1cc(-c2nccc(-c3cccc(-c4ccc(CNC5CCOCC5)c(OC)n4)c3Cl)c2Cl)ccc1CNC1CCOCC1 [Example 298, N-((6-(2-chloro-3-(3-chloro-2-(3-methoxy-4-(((tetrahydro-2H-pyran-4-yl)amino)methyl)phenyl)pyridin-4-yl)phenyl)-2-methoxypyridin-3-yl)methyl)tetrahydro-2H-pyran-4-amine] | 1.78 nM | 14.6 nM
COc1cc(-c2nccc(-c3cccc(-c4ccc(CNC5CCS(=O)(=O)CC5)c(OC)n4)c3Cl)c2Cl)ccc1CNC1CCS(=O)(=O)CC1 [Example 299, 4-(((6-(2-Chloro-3-(3-chloro-2-(4-(((1,1-dioxidotetrahydro-2H-thiopyran-4-yl)amino)methyl)-3-methoxyphenyl)pyridin-4-yl)phenyl)-2-methoxypyridin-3-yl)methyl)amino)tetrahydro-2H-thiopyran 1,1-dioxide] | 0.79 nM | 22.6 nM
COc1cc(-c2nccc(-c3cccc(-c4ccc(CNC5CN(C(C)=O)C5)c(OC)n4)c3Cl)c2Cl)ccc1CNC1CN(C(C)=O)C1 [Example 300, 1-(3-(((6-(3-(2-(4-(((1-Acetylazetidin-3-yl)amino)methyl)-3-methoxyphenyl)-3-chloropyridin-4-yl)-2-chlorophenyl)-2-methoxypyridin-3-yl)methyl)amino)azetidin-1-yl)ethan-1-one] | 0.87 nM | 282 nM
COc1cc(-c2nccc(-c3cccc(-c4ccc(CNC[C@H](C)O)c(OC)n4)c3Cl)c2Cl)ccc1CNC[C@H](C)O [Example 301, (S)-1-(((6-(2-Chloro-3-(3-chloro-2-(4-((((S)-2-hydroxypropyl)amino)methyl)-3-methoxyphenyl)pyridin-4-yl)phenyl)-2-methoxypyridin-3-yl)methyl)amino)propan-2-ol] | 0.57 nM | 19.7 nM
COc1cc(-c2nccc(-c3cccc(-c4ccc(CNC5CC6(CCNC6=O)C5)c(OC)n4)c3Cl)c2Cl)ccc1CNC1CC2(CCNC2=O)C1 (stereo not shown) [Example 302, 2-((4-(3-Chloro-4-(2-chloro-3-(6-methoxy-5-(((5-oxo-6-azaspiro[3.4]octan-2-yl)amino)methyl)pyridin-2-yl)phenyl)pyridin-2-yl)-2-methoxybenzyl)amino)-6-azaspiro[3.4]octan-5-one] | 1.11 nM | 23.5 nM
COc1cc(-c2nccc(-c3cccc(-c4ccc(CNCCN5CCCC5=O)c(OC)n4)c3Cl)c2Cl)ccc1CNCCN1CCCC1=O [Example 303, 1-(2-(((6-(2-Chloro-3-(3-chloro-2-(3-methoxy-4-(((2-(2-oxopyrrolidin-1-yl)ethyl)amino)methyl)phenyl)pyridin-4-yl)phenyl)-2-methoxypyridin-3-yl)methyl)amino)ethyl)pyrrolidin-2-one] | 2.83 nM | 30.8 nM
COc1nc(-c2ccnc(-c3cccc4c3CC[C@@H]4Nc3nc(OC)c(CN4CC5(CNC(=O)C5)C4)nc3C(F)(F)F)c2Cl)ccc1CN1CC2(CNC(=O)C2)C1 [Example 304, (S)-2-((3′-chloro-6-methoxy-2′-(1-((6-methoxy-5-((7-oxo-2,6-diazaspiro[3.4]octan-2-yl)methyl)-3-(trifluoromethyl)pyrazin-2-yl)amino)-2,3-dihydro-1H-inden-4-yl)-[2,4′-bipyridin]-5-yl)methyl)-2,6-diazaspiro[3.4]octan-7-one] | 6.51 nM | 197 nM
COc1nc(-c2ccnc(-c3cccc4c3CC[C@@H]4Nc3nc(OC)c(CN4CC5(C4)CN(C(C)=O)C5)nc3C(F)(F)F)c2Cl)ccc1CN1CC2(C1)CN(C(C)=O)C2 [Example 305, (S)-1-(6-((5-((4-(5-((6-Acetyl-2,6-diazaspiro[3.3]heptan-2-yl)methyl)-3′-chloro-6-methoxy-[2,4′-bipyridin]-2′-yl)-2,3-dihydro-1H-inden-1-yl)amino)-3-methoxy-6-(trifluoromethyl)pyrazin-2-yl)methyl)-2,6-diazaspiro[3.3]heptan-2-yl)ethan-1-one] | 4.96 nM | ≥ 10000 nM
COc1cc(-c2nccc(-c3cccc4c3CC[C@@H]4Oc3nc(OC)c(CN4CC5(CNC(=O)C5)C4)cc3C(F)(F)F)c2Cl)cc(F)c1CN1CC2(CNC(=O)C2)C1 [Example 306, (S)-2-(4-(3-chloro-4-(1-((6-methoxy-5-((7-oxo-2,6-diazaspiro[3.4]octan-2-yl)methyl)-3-(trifluoromethyl)pyridin-2-yl)oxy)-2,3-dihydro-1H-inden-4-yl)pyridin-2-yl)-2-fluoro-6-methoxybenzyl)-2,6-diazaspiro[3.4]octan-7-one] | 0.76 nM | 361 nM
COc1nc(-c2cccc(-c3ccnc(-c4cc(Cl)c5c(c4)CCN(CC4COC4)C5)c3Cl)c2Cl)ccc1CNC[C@@H]1CCC(=O)N1 [Example 307, (S)-5-((((6-(2-Chloro-3-(3-chloro-2-(8-chloro-2-(oxetan-3-ylmethyl)-1,2,3,4-tetrahydroisoquinolin-6-yl)pyridin-4-yl)phenyl)-2-methoxypyridin-3-yl)methyl)amino)methyl)pyrrolidin-2-one] | 1.41 nM | 186 nM
COc1nc(-c2cccc(-c3ccnc(-c4ccc5c(CN6CC7(C6)CN(C(C)=O)C7)nn(C)c5c4)c3Cl)c2Cl)ccc1CNC[C@@H]1CCC(=O)N1 [Example 308, (S)-5-((((6-(3-(2-(3-((6-Acetyl-2,6-diazaspiro[3.3]heptan-2-yl)methyl)-1-methyl-1H-indazol-6-yl)-3-chloropyridin-4-yl)-2-chlorophenyl)-2-methoxypyridin-3-yl)methyl)amino)methyl)pyrrolidin-2-one] | 0.95 nM | 24.1 nM
COc1nc(-c2cccc(-c3ccnc(-c4ccc5c(CN6CC[C@H](C(=O)O)C6)nn(C)c5c4)c3Cl)c2Cl)ccc1CNC[C@@H]1CCC(=O)N1 [Example 309, (S)-1-((6-(3-Chloro-4-(2-chloro-3-(6-methoxy-5-(((((S)-5-oxopyrrolidin-2-yl)methyl)amino)methyl)pyridin-2-yl)phenyl)pyridin-2-yl)-1-methyl-1H-indazol-3-yl)methyl)pyrrolidine-3-carboxylic acid] | 0.3 nM | 75 nM
COc1nc(-c2cccc(-c3ccnc(-c4cc(OC)c5nc(CNC[C@@H]6CCC(=O)N6)cn5c4)c3Cl)c2Cl)ccc1CNC[C@@H]1CCC(=O)N1 [Example 310, (S)-5-((((6-(2-Chloro-3-(3-chloro-2-(8-methoxy-2-(((((S)-5-oxopyrrolidin-2-yl)methyl)amino)methyl)imidazo[1,2-a]pyridin-6-yl)pyridin-4-yl)phenyl)-2-methoxypyridin-3-yl)methyl)amino)methyl)pyrrolidin-2-one] | 1.8 nM | 90.5 nM
COc1cc(-c2nccc(-c3cccc(-c4cnc(CNC5CCN(C(C)=O)CC5)c(OC)n4)c3Cl)c2Cl)ccc1CNC1CCN(C(C)=O)CC1 [Example 311, 1-(4-(((5-(3-(2-(4-(((1-Acetylpiperidin-4-yl)amino)methyl)-3-methoxyphenyl)-3-chloropyridin-4-yl)-2-chlorophenyl)-3-methoxypyrazin-2-yl)methyl)amino)piperidin-1-yl)ethan-1-one] | 0.907 nM | 152 nM
COc1nc(-c2cccc(-c3ccnc(-c4cc(OC)c5nc(CN[C@H]6C[C@](C)(O)C6)cn5c4)c3Cl)c2Cl)ccc1CNC[C@@H]1CCC(=O)N1 [Example 312, (S)-5-((((6-(2-chloro-3-(3-chloro-2-(2-((((1r,3r)-3-hydroxy-3-methylcyclobutyl)amino)methyl)-8-methoxyimidazo[1,2-a]pyridin-6-yl)pyridin-4-yl)phenyl)-2-methoxypyridin-3-yl)methyl)amino)methyl)pyrrolidin-2-one] | 0.813 nM | 178 nM
COc1nc(-c2cccc(-c3ccnc(-c4cc(OC)c5nc(CN6CC7(CNC(=O)C7)C6)cn5c4)c3Cl)c2Cl)ccc1CNC[C@@H]1CCC(=O)N1 [Example 314, (S)-2-((6-(3-Chloro-4-(2-chloro-3-(6-methoxy-5-((((5-oxopyrrolidin-2-yl)methyl)amino)methyl)pyridin-2-yl)phenyl)pyridin-2-yl)-8-methoxyimidazo[1,2-a]pyridin-2-yl)methyl)-2,6-diazaspiro[3.4]octan-7-one] | 1.63 nM | 69.2 nM
COc1cc(-c2nccc(-c3cccc(-c4ccc(CNC5CCN(C(C)=O)CC5)c(OC)n4)c3Cl)c2Cl)ccc1CN(C)C1CCN(C(C)=O)CC1 [Example 315, 1-(4-(((6-(3-(2-(4-(((1-acetylpiperidin-4-yl)(methyl)amino)methyl)-3-methoxyphenyl)-3-chloropyridin-4-yl)-2-chlorophenyl)-2-methoxypyridin-3-yl)methyl)amino)piperidin-1-yl)ethan-1-one] | 1.54 nM | 28.9 nM
COc1cc(-c2nccc(-c3cccc(-c4ccc(CNC5CCN(C(=O)C6CC6)CC5)c(OC)n4)c3Cl)c2Cl)cc(F)c1CNC1CCN(C(=O)C2CC2)CC1 [Example 316, (4-(((6-(2-Chloro-3-(3-chloro-2-(4-(((1-(cyclopropanecarbonyl)piperidin-4-yl)amino)methyl)-3-fluoro-5-methoxyphenyl)pyridin-4-yl)phenyl)-2-methoxypyridin-3-yl)methyl)amino)piperidin-1-yl)(cyclopropyl)methanone] | 3.45 nM | 45.7 nM
